Reference: US9593149B2, “Amylin and calcitonin receptor agonist” (Novo Nordisk A/S, priority 2014, dated 2017)
Values after ≈ are worked out from the molar mass of the structure shown. Numbered stars: 1 amine (or outer) side, 2 acyl side, 3 side chain; on linkers, the order of the positions; unused ones are H or OH. Peptide text beside a SMILES is read from it. * marks the point of attachment. C20 diacid = O=C(O)CCCCCCCCCCCCCCCCCCC(=O)*; C18 diacid = O=C(O)CCCCCCCCCCCCCCCCC(=O)*; γGlu = O=C(O)[C@H](CCC(=O)[*:2])N[*:1]

Test: Assay (IV) determination of solubility
Assay type: physicochemical
Protocol: Assay (IV)—Determination of Solubility
The mimylin peptide was dissolved in water at ˜500 nmol/ml and mixed 1:1 with a series of buffers (100 mM glycylglycine pH 3.0, 100 mM glycylglycine pH 4.0, 100 mM glycylglycine pH 5.0, 100 mM bistrispropane pH 6.0, 100 mM bistrispropane pH 6.5, 100 mM bistrispropane pH 7.0, 100 mM bistrispropane pH 7.5, 100 mM bistrispropane pH 8.0).

SMILES | Solubility (pH 3.0) | Solubility (pH 4.0) | Solubility (pH 5.0) | Solubility (pH 6.0) | Solubility (pH 6.5) | Solubility (pH 7.0) | Solubility (pH 7.5) | Solubility (pH 8.0) | solubility at 18 h (pH 4.0) | solubility at 18 h (pH 5.0)
CC(C)C[C@H](NC(=O)[C@H](CCC(=O)O)NC(=O)[C@H](Cc1cnc[nH]1)NC(=O)[C@H](CC(C)C)NC(=O)[C@H](CCC(=O)O)NC(=O)[C@H](C)NC(=O)[C@H](CO)NC(=O)[C@H](CC(C)C)NC(=O)[C@H](CCCNC(=N)N)NC(=O)CNC(=O)[C@H](CC(C)C)NC(=O)[C@@H](NC(=O)[C@H](C)NC(=O)[C@@H](NC(=O)[C@@H](NC(=O)[C@H](CC(C)C)NC(=O)[C@H](CCC(=O)O)NC(=O)[C@H](CO)NC(=O)[C@H](C)NC(=O)CC[C@H](NC(=O)CCCCCCCCCCCCCCCCC(=O)O)C(=O)O)[C@@H](C)O)[C@@H](C)O)C(C)C)C(=O)N[C@@H](C)C(=O)N[C@H](C(=O)N[C@@H](CC(C)C)C(=O)N1CCC[C@H]1C(=O)N[C@@H](CCCNC(=N)N)C(=O)N[C@H](C(=O)N[C@@H](CCC(=O)O)C(=O)N[C@H](C(=O)NCC(=O)N[C@H](C(=O)NCC(=O)N[C@H](C(=O)N1CCC[C@H]1C(N)=O)[C@@H](C)O)[C@@H](C)O)[C@@H](C)O)[C@@H](C)O)[C@@H](C)O [compound 95, [N-terminal(C18 diacid-gGlu), des1, 6T, 9V, 30T, 31G, 32T]mimylin] ({C18 diacid-γGlu}-ASELTTAVLGRLSAELHELATLPRTETGTGTP-NH2) | ≧200 μM | ≧200 μM | ≧200 μM | ≧200 μM | ≧200 μM | ≧200 μM | ≧200 μM | ≧200 μM |  | 
CC(C)C[C@H](NC(=O)[C@H](CCC(=O)O)NC(=O)[C@H](Cc1cnc[nH]1)NC(=O)[C@H](CC(C)C)NC(=O)[C@H](CCC(=O)O)NC(=O)[C@H](C)NC(=O)[C@H](CO)NC(=O)[C@H](CC(C)C)NC(=O)[C@H](CCCNC(=N)N)NC(=O)CNC(=O)[C@@H](NC(=O)[C@@H](NC(=O)[C@H](C)NC(=O)[C@@H](NC(=O)[C@H](CO)NC(=O)[C@@H](NC(=O)[C@H](CCC(=O)O)NC(=O)[C@H](CO)NC(=O)[C@H](C)NC(=O)CC[C@H](NC(=O)CCCCCCCCCCCCCCCCC(=O)O)C(=O)O)C(C)C)[C@@H](C)O)C(C)C)C(C)C)C(=O)N[C@@H](C)C(=O)N[C@H](C(=O)N[C@@H](CC(C)C)C(=O)N1CCC[C@H]1C(=O)N[C@@H](CCCNC(=N)N)C(=O)N[C@H](C(=O)N[C@@H](CCC(=O)O)C(=O)N[C@H](C(=O)NCC(=O)N[C@@H](CO)C(=O)NCC(=O)N[C@@H](CO)C(=O)N1CCC[C@H]1C(N)=O)[C@@H](C)O)[C@@H](C)O)[C@@H](C)O [compound 96, [N-terminal(C18 diacid-gGlu), des1, 5V, 9V, 10V, 30S, 31G]mimylin] ({C18 diacid-γGlu}-ASEVSTAVVGRLSAELHELATLPRTETGSGSP-NH2) | ≧200 μM |  |  | ≧200 μM | ≧200 μM | ≧200 μM | ≧200 μM | ≧200 μM | 177 µM (≈ 646 µg/mL) | 45 µM (≈ 164 µg/mL)
CC(C)C[C@H](NC(=O)[C@H](C)NC(=O)[C@H](C)NC(=O)[C@@H](NC(=O)[C@H](CO)NC(=O)[C@H](CC(C)C)NC(=O)[C@H](CCC(=O)O)NC(=O)[C@H](CO)NC(=O)[C@H](C)NC(=O)CC[C@H](NC(=O)CCCCCCCCCCCCCCCCCCC(=O)O)C(=O)O)[C@@H](C)O)C(=O)NCC(=O)N[C@@H](CCCNC(=N)N)C(=O)N[C@@H](CC(C)C)C(=O)N[C@@H](CO)C(=O)N[C@@H](C)C(=O)N[C@@H](CCC(=O)O)C(=O)N[C@@H](CC(C)C)C(=O)N[C@@H](Cc1cnc[nH]1)C(=O)N[C@@H](CCC(=O)O)C(=O)N[C@@H](CC(C)C)C(=O)N[C@@H](CO)C(=O)N[C@H](C(=O)N[C@@H](Cc1ccc(O)cc1)C(=O)N1CCC[C@H]1C(=O)N[C@@H](CCCNC(=N)N)C(=O)N[C@H](C(=O)N[C@@H](CCC(=O)O)C(=O)N[C@H](C(=O)NCC(=O)N[C@@H](CO)C(=O)NCC(=O)N[C@@H](CO)C(=O)N[C@@H](Cc1ccc(O)cc1)C(N)=O)[C@@H](C)O)[C@@H](C)O)[C@@H](C)O [compound 97, [N-terminal(C20 diacid-gGlu), des1, 21S, 23Y, 30S, 31G, 33Y]mimylin] ({C20 diacid-γGlu}-ASELSTAALGRLSAELHELSTYPRTETGSGSY-NH2) | ≧200 μM | ≧200 μM |  | ≧200 μM | ≧200 μM | ≧200 μM | ≧200 μM | ≧200 μM |  | 40 µM (≈ 152 µg/mL)
CC(C)C[C@H](NC(=O)CNC(=O)[C@H](CO)NC(=O)[C@H](C)NC(=O)CC[C@H](NC(=O)CCCCCCCCCCCCCCCCCCC(=O)O)C(=O)O)C(=O)N[C@@H](CO)C(=O)N[C@H](C(=O)N[C@@H](C)C(=O)N[C@H](C(=O)N[C@@H](CC(C)C)C(=O)NCC(=O)N[C@@H](CCCNC(=N)N)C(=O)N[C@@H](CC(C)C)C(=O)N[C@@H](CO)C(=O)N[C@@H](C)C(=O)N[C@@H](CCC(=O)O)C(=O)N[C@@H](CC(C)C)C(=O)N[C@@H](Cc1cnc[nH]1)C(=O)N[C@@H](CCC(=O)O)C(=O)N[C@@H](CC(C)C)C(=O)N[C@@H](C)C(=O)N[C@H](C(=O)N[C@@H](Cc1ccc(O)cc1)C(=O)N1CCC[C@H]1C(=O)N[C@@H](CCCNC(=N)N)C(=O)N[C@H](C(=O)N[C@@H](CCC(=O)O)C(=O)N[C@H](C(=O)NCC(=O)N[C@@H](CO)C(=O)NCC(=O)N[C@H](C(=O)N1CCC[C@H]1C(N)=O)[C@@H](C)O)[C@@H](C)O)[C@@H](C)O)[C@@H](C)O)C(C)C)[C@@H](C)O [compound 98, [N-terminal(C20 diacid-gGlu), des1, 4G, 9V, 23Y, 30S, 31G, 32T]mimylin] ({C20 diacid-γGlu}-ASGLSTAVLGRLSAELHELATYPRTETGSGTP-NH2) | ≧200 μM | ≧200 μM | ≧200 μM | ≧200 μM | ≧200 μM | ≧200 μM | ≧200 μM | ≧200 μM |  | 

Further lines, results first:

Solubility (pH 3.0) | Solubility (pH 4.0) | Solubility (pH 5.0) | Solubility (pH 6.0) | Solubility (pH 6.5) | Solubility (pH 7.0) | Solubility (pH 7.5) | Solubility (pH 8.0) | solubility at 18 h (pH 4.0) | solubility at 18 h (pH 5.0) | SMILES
≧200 μM | ≧200 μM | ≧200 μM | ≧200 μM | ≧200 μM | ≧200 μM | ≧200 μM | ≧200 μM |  |  | CC(C)C[C@H](NC(=O)[C@H](C)NC(=O)[C@H](C)NC(=O)[C@@H](NC(=O)[C@H](CO)NC(=O)[C@H](CC(C)C)NC(=O)[C@H](CCC(=O)O)NC(=O)[C@H](CO)NC(=O)[C@H](C)NC(=O)CC[C@H](NC(=O)CCCCCCCCCCCCCCCCCCC(=O)O)C(=O)O)[C@@H](C)O)C(=O)NCC(=O)N[C@@H](CCCCN)C(=O)N[C@@H](CC(C)C)C(=O)N[C@@H](CO)C(=O)N[C@@H](C)C(=O)N[C@@H](CCC(=O)O)C(=O)N[C@@H](CC(C)C)C(=O)N[C@@H](Cc1cnc[nH]1)C(=O)N[C@@H](CCC(=O)O)C(=O)N[C@@H](CC(C)C)C(=O)N[C@@H](C)C(=O)N[C@H](C(=O)N[C@@H](Cc1ccc(O)cc1)C(=O)N1CCC[C@H]1C(=O)N[C@@H](CCCCN)C(=O)N[C@H](C(=O)N[C@@H](CCC(=O)O)C(=O)N[C@H](C(=O)NCC(=O)N[C@@H](CO)C(=O)NCC(=O)N[C@@H](CO)C(=O)N[C@@H](Cc1ccc(O)cc1)C(N)=O)[C@@H](C)O)[C@@H](C)O)[C@@H](C)O [compound 101, [N-terminal(C20 diacid-gGlu), des1, 12K, 23Y, 25K, 30S, 31G, 33Y]mimylin] ({C20 diacid-γGlu}-ASELSTAALGKLSAELHELATYPKTETGSGSY-NH2)
≧200 μM | ≧200 μM |  | ≧200 μM | ≧200 μM | ≧200 μM | ≧200 μM | ≧200 μM |  | 156 µM (≈ 620 µg/mL) | CC(C)C[C@H](NC(=O)CNC(=O)[C@H](CO)NC(=O)[C@H](C)NC(=O)[C@H](CCC(=O)O)NC(=O)CC[C@H](NC(=O)CCCCCCCCCCCCCCCCCCC(=O)O)C(=O)O)C(=O)N[C@@H](CO)C(=O)N[C@H](C(=O)N[C@@H](C)C(=O)N[C@@H](C)C(=O)N[C@@H](CC(C)C)C(=O)NCC(=O)N[C@@H](CCCNC(=N)N)C(=O)N[C@@H](CC(C)C)C(=O)N[C@@H](CO)C(=O)N[C@@H](CCC(N)=O)C(=O)N[C@@H](CCC(=O)O)C(=O)N[C@@H](CC(C)C)C(=O)N[C@@H](Cc1cnc[nH]1)C(=O)N[C@@H](CCC(=O)O)C(=O)N[C@@H](CC(C)C)C(=O)N[C@@H](CCC(N)=O)C(=O)N[C@H](C(=O)N[C@@H](Cc1ccc(O)cc1)C(=O)N1CCC[C@H]1C(=O)N[C@@H](CCCNC(=N)N)C(=O)N[C@H](C(=O)N[C@@H](CCC(=O)O)C(=O)N[C@H](C(=O)NCC(=O)N[C@@H](CO)C(=O)NCC(=O)N[C@H](C(=O)N[C@@H](Cc1ccc(O)cc1)C(N)=O)[C@@H](C)O)[C@@H](C)O)[C@@H](C)O)[C@@H](C)O)[C@@H](C)O [compound 103, [N-terminal(C20 diacid-gGlu), 4G, 15Q, 21Q, 23Y, 30S, 31G, 32T, 33Y]mimylin] ({C20 diacid-γGlu}-EASGLSTAALGRLSQELHELQTYPRTETGSGTY-NH2)
